Results: patent US20230416199A1, “INHIBITORS OF AMINO ACID TRANSPORT” (ICAHN SCHOOL OF MEDICINE AT MOUNT SINAI, priority 2020, published 2023)

Experiments:
Assay type in all cases: cell-based
rASCT2 = target: T1, rASCT2 (Rattus norvegicus, UniProt D3ZJ25); experiment: Electrophysiology (whole-cell current recording) of transfected HEK293 cells, rASCT2; conditions: apparent Ki in the absence of substrate, HEK293, mean ± SD; read-out: Ki rASCT2
T1 construct: expressed in transfected cells; host or cells: HEK293 (ATCC CRL-11268), transient transfection
T1 sequence (D3ZJ25 1-555): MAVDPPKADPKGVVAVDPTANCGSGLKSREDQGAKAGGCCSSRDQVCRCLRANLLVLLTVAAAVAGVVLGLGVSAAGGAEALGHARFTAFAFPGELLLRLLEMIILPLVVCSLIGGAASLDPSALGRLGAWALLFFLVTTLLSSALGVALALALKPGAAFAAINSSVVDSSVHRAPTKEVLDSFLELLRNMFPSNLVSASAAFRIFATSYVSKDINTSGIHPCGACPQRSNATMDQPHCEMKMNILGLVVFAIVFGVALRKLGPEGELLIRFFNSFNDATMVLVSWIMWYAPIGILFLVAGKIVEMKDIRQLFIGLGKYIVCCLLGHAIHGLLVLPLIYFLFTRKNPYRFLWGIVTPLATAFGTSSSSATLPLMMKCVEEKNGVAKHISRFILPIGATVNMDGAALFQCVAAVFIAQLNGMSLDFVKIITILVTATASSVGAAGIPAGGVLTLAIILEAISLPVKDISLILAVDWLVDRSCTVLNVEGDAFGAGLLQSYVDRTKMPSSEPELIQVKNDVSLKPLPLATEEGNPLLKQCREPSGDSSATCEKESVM
Method: (§1) Human embryonic kidney 293 (HEK293, ATCC CRL-11268) cells were cultured in DMEM media supplemented with 10% (v v) fetal bovine serum (FBS), 2 mM glutamine, 1% penicillin streptomycin solution, 1 mM sodium pyruvate and non-essential amino acids. Cells were maintained at 37° C. in a fully humidified atmosphere containing 5% CO2. rASCT2, hASCT2, hASCT1, EAAT1, EAAT2, EAAC1, EAAT5 and YFP complementary DNAs were each used to transiently transfect HEK293 using POLYPLUS Jet-prime transfection reagent. Cells were analyzed using electrophysiological techniques 24-40 hours after transfection.
(§2) Stock solutions of inhibitor was prepared in dimethyl sulfoxide (DMSO) up to 100 mM. Dilutions to working concentrations were made using external buffer. […] For rASCT2, hASCT2 and hASCT1, external buffer contained 140 mM NaCl, 2 mM MgCl2, 2 mM CaCl2), and 10 mM HEPES, pH 7.40 while internal pipette solution comprised of 130 mM NaSCN, 2 mM MgCl2, 10 mM EGTA, 10 mM HEPES and 10 mM alanine, pH 7.40. For specificity experiments with EAAT1, EAAT2, EAAC1 and EAAT5, internal solution contained 10 mM glutamate instead of alanine. Compounds were applied to HEK293 cells expressing DNA of interest suspended from a current recording electrode in whole cell configuration through a rapid solution exchange device. Cells are immersed in external buffer bath used to dissolve the inhibitors. The open pipette resistance was between 3 and 6 MΩ. Series resistance was not compensated in these experiments due to relatively small currents. Currents traces were recorded using an Adams and List EPC7 amplifier and digitized using a Molecular Devices Digidata A/D converter.
(§3) Linear and nonlinear curve fitting of the experimental data were analyzed using MicroCal Origin software. Nonlinear dose-response relationships were fitted with a Michaelis-Menten-like equation to obtain apparent Ki values in the absence of substrate (see TABLE 2 for Ki values). The figures show representative current traces and dose-response curves for hACST2 and rASCT2, used to obtain Ki values in TABLE 2 for compound SN 40. At least four experiments were performed with at least three different cells. Error bars in all graphs, e.g., in FIG. 1B and FIG. 1C and tables (Ki values) represent mean±SD.

EAAT1 = target: T2, EAAT1 (Homo sapiens, UniProt P43003); experiment: Electrophysiology specificity experiment in transfected HEK293 cells, EAAT1; conditions: apparent Ki, HEK293, internal solution 10 mM glutamate, mean ± SD
T2 construct: expressed in transfected cells; host or cells: HEK293 (ATCC CRL-11268), transient transfection
Method: as §1, §2, §3

EAAC1 = target: T3, EAAC1 (UniProt P51907); experiment: Electrophysiology specificity experiment in transfected HEK293 cells, EAAC1; conditions: apparent Ki, HEK293, internal solution 10 mM glutamate, mean ± SD
T3 construct: Ki EAAC1; other: apparent Ki, HEK293, internal solution 10 mM glutamate, mean ± SD
T3 sequence (P51907 1-523): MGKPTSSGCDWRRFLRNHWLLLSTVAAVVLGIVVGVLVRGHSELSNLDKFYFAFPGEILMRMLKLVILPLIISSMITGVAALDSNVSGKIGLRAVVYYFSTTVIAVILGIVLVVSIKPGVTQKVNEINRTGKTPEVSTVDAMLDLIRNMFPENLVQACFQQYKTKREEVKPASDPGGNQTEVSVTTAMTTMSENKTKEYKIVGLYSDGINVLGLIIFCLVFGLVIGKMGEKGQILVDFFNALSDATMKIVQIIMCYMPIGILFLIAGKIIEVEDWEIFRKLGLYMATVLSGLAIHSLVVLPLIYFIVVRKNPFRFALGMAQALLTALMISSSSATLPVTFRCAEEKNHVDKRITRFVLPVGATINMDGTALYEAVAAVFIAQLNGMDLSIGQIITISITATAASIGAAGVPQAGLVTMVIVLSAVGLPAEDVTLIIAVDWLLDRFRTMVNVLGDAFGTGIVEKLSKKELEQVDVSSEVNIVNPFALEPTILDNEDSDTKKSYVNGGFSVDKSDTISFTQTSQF
Method: Cells were maintained at 37° C. in a fully humidified atmosphere containing 5% CO2. rASCT2, hASCT2, hASCT1, EAAT1, EAAT2, EAAC1, EAAT5 and YFP complementary DNAs were each used to transiently transfect HEK293 using POLYPLUS Jet-prime transfection reagent. Cells were analyzed using electrophysiological techniques 24-40 hours after transfection.
as §2
as §3, with “The figures show representative current traces and dose-response curves for hACST2 and rASCT2, used to obtain Ki values in TABLE 2 for compound SN 40.” left out

T2 sequence (P43003 whole entry, species assumed): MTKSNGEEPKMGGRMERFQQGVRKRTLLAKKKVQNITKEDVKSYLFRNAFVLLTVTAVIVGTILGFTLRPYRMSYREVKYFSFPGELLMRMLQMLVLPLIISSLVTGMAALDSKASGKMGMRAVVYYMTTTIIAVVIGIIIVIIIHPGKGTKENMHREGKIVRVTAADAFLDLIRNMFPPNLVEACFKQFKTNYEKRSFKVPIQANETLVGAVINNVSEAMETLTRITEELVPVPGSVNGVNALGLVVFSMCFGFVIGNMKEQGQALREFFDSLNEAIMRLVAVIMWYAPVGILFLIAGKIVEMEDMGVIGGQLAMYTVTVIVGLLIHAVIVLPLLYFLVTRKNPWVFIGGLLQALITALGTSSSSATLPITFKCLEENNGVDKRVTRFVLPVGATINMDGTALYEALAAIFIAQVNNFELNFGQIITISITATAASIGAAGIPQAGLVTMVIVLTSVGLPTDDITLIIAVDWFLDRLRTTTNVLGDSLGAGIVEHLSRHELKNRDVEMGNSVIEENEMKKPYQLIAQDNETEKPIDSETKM

Structure (SMILES) | Ki (rASCT2) [nM] | Ki (EAAT1) [nM] | Ki (EAAC1) [nM]
O=C(O[C@@H]1CN[C@H](C(=O)O)C1)c1ccc(-c2ccccc2)cc1 [SN 05] | 730 ± 100 | 3700 ± 200 | 7230 ± 1400
O=C(O[C@@H]1CN[C@H](C(=O)O)C1)c1ccc(-c2ccccc2)nc1 [SN 19] | 890 ± 200 | 10200 ± 2500 | 14200 ± 700
O=C(O[C@@H]1CN[C@H](C(=O)O)C1)c1ccc(-c2ccc(F)cc2)cc1 [SN 08] | 650 ± 40 | 400 ± 100 | 690 ± 100
O=C(O)[C@@H]1C[C@H](OCc2ccc(-c3ccccc3)cc2)CN1 [SN 39] | 1130 ± 100 | 930 ± 100 | 1270 ± 200

Continued by falling Ki (rASCT2), values first:

Ki (rASCT2) [nM] | Ki (EAAT1) [nM] | Ki (EAAC1) [nM] | Structure (SMILES)
4400 ± 1500 | 9570 ± 1600 | 12300 ± 1900 | N[C@@H](COC(=O)c1ccc(NC(=O)c2ccccc2)cc1)C(=O)O [SN 25]
970 ± 100 | 1000 ± 100 | 1990 ± 400 | Cc1ccccc1-c1ccc(C(=O)O[C@@H]2CN[C@H](C(=O)O)C2)cc1 [SN 10]
870 ± 100 | 4750 ± 300 | 950 ± 200 | Cc1ccccc1-c1ccc(C(=O)O[C@@H]2CN[C@H](C(=O)O)C2)cc1C [SN 11]
270 ± 50 | 1000 ± 300 | 1250 ± 200 | O=C(O[C@@H]1CN[C@H](C(=O)O)C1)c1ccc(-c2ccc(C(F)(F)F)cc2)cc1 [SN 09]
